The target in one assay is USP28 (Homo sapiens (Human), UniProt Q96RU2). Put plainly: Ubiquitin-Rhodamine 110 Assay for USP28 Activity. Type of assay: biochemical. The method, then:
The assay was performed in a final volume of 20 μL in assay buffer containing 20 mM Tris-HCl (pH 8.0, (1M Tris-HCl, pH 8.0 solution; Corning 46-031-CM)), 2 mM CaCl2 (1M Calcium Chloride solution; Sigma #21114) 2 mM BME (2-Mercaptoethanol; Sigma 63689-25ML -F), 0.01% Prionex (0.22 μM filtered, Sigma #G-0411), and 0.01% Triton X-100. Stock compound solutions were stored at −20° C. as 10 mM in DMSO. Up to 1 month prior to the assay, 2 mM test compounds were pre-dispensed into assay plates (Black, low volume; Corning #3820) and frozen at −20° C. Prestamped assay plates were allowed to come to room temperature on the day of the assay. For the screen, 100 nL of 2 mM was pre-dispensed for a final screening concentration of 10 μM (DMSO(fc)=0.5%). […] Plates were incubated stacked for 90 minutes at room temperature before fluorescence was read on the Envision (Excitation at 485 nm and Emission at 535 nm; Perkin Elmer) or on the PheraSTAR (Excitation at 485 nm and Emission at 535 nm; BMG Labtech).
For follow-up studies, the assay was performed in a final volume of 15 μL in assay buffer containing 20 mM Tris-HCl (pH 8.0, (1M Tris-HCl, pH 8.0 solution; Corning 46-031-CM)), 3 mM BME (2-Mercaptoethanol; Sigma 63689-25ML-F), 0.03% BGG (0.22 μM filtered, Sigma, G7516-25G), and 0.01% Triton X-100 (Sigma, T9284-10L). Nanoliter quantities of either an 8-point or 10-point, 3-fold serial dilution in DMSO was pre-dispensed into assay plates (Perkin Elmer, ProxiPlate-384 F Plus) for a final test concentration of either 25 μM to 11 nM or 25 μM to 1.3 nM, respectively. Enzyme USP28, construct USP28 (USP28-5(1-1077)-TEV-6*His; LifeSensors) concentration and incubation times were optimized for the maximal signal-to -background while maintaining initial velocity conditions at a fixed substrate concentration. The final concentration of the enzyme in the assay was 75 pM. […] 5 μL of 2× enzyme was added to assay plates (pre-stamped with compound) preincubated with USP28 for 30 minutes and then 5 μL of 2× Ub-Rh110 was added to assay plates. Plates were incubated stacked for 20 min at room temperature before 5 μL of stop solution was added (final concentration of 10 mM citric acid (Sigma, 251275-500G)). Fluorescence was read on the Envision (Excitation at 485 nm and Emission at 535 nm; Perkin Elmer) or on the PheraSTAR (Excitation at 485 nm and Emission at 535 nm; BMG Labtech).
(§1) For both the USP28 and USP25 assay formats, data were reported as percent inhibition compared with control wells based on the following equation: % inh=1-((FLU-AveLow)/(AveHigh−AveLow)) where FLU=measured Fluorescence, AveLow=average Fluorescence of no enzyme control (n=16), and AveHigh=average Fluorescence of DMSO control (n=16). IC50 values were determined by curve fitting of the standard 4 parameter logistic fitting algorithm included in the Activity Base software package: IDBS XE Designer Model205. Data is fitted using the Levenburg Marquardt algorithm.

In a further assay the target is USP25 (Homo sapiens (Human), UniProt Q9UHP3). Kind of assay: Ubiquitin-Rhodamine 110 Assay for USP25 Activity. Type of assay: biochemical. On the procedure:
The assay was performed in a final volume of 9 μL in assay buffer containing 20 mM Tris-HCl (pH 8.0, (1M Tris-HC1, pH 8.0 solution; Corning 46-031-CM)), 3 mM BME (2-Mercaptoethanol; Sigma 63689-25ML-F), 0.03% BGG (0.22 μM filtered, Sigma, G7516-25G), and 0.01% Triton X-100 (Sigma, T9284-10L). Nanoliter quantities of 10-point, 3-fold serial dilution in DMSO was pre-dispensed into 1536 assay plates (Corning, #3724BC) for a final test concentration of 25 μM to 1.3 nM, top to lowest dose, respectively. Enzyme USP25, construct USP25-His6, (Boston Biochem E-546). Concentration and incubation times were optimized for the maximal signal-to-background while maintaining initial velocity conditions at a fixed substrate concentration. The final concentration of the enzyme in the assay was 75 pM. […] 3 μL of 2× enzyme was added to assay plates (pre-stamped with compound) preincubated with […] for 30 minutes and then 3 μL of 2× Ub-Rh110 was added to assay plates. Plates were incubated for 45 minutes at room temperature before addition of 3 μL of stop solution (final concentration of 10 mM citric acid (Sigma, 251275-500G)). Fluorescence was read on the Envision (Excitation at 485 nm and Emission at 535 nm; Perkin Elmer) or on the PheraSTAR (Excitation at 485 nm and Emission at 535 nm; BMG Labtech).
as §1

In general, IC50 refers to the midpoint of a concentration-inhibition curve. Lower therefore signals greater potency in that assay.

Chain of USP28 (Q96RU2 whole entry): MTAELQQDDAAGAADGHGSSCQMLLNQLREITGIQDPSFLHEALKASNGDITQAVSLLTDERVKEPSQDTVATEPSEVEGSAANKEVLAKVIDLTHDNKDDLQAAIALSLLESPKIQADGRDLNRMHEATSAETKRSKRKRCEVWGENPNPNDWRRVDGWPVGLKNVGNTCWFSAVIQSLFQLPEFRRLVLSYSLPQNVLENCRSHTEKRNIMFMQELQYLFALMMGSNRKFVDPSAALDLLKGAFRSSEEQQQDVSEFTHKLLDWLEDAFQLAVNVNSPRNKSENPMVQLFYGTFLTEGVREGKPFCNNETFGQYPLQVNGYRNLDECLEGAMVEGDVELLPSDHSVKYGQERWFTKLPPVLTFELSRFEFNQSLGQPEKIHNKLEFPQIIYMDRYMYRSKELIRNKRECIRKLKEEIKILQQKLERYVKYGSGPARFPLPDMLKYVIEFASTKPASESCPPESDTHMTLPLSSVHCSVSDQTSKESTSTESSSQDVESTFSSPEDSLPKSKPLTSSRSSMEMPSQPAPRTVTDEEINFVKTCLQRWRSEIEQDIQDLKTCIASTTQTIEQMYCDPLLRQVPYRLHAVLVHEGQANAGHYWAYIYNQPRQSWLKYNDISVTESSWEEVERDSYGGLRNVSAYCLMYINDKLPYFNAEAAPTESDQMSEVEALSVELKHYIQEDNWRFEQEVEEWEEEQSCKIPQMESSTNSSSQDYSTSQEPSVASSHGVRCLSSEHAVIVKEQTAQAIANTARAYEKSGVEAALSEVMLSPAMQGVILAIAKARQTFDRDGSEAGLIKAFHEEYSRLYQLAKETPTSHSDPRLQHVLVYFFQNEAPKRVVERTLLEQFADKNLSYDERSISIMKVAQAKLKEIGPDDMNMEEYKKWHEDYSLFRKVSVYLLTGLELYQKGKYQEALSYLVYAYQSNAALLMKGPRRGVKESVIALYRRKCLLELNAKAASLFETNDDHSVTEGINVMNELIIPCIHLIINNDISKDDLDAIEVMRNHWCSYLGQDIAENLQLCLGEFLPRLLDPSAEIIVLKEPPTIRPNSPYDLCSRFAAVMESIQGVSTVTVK
Chain of USP25 (Q9UHP3 whole entry): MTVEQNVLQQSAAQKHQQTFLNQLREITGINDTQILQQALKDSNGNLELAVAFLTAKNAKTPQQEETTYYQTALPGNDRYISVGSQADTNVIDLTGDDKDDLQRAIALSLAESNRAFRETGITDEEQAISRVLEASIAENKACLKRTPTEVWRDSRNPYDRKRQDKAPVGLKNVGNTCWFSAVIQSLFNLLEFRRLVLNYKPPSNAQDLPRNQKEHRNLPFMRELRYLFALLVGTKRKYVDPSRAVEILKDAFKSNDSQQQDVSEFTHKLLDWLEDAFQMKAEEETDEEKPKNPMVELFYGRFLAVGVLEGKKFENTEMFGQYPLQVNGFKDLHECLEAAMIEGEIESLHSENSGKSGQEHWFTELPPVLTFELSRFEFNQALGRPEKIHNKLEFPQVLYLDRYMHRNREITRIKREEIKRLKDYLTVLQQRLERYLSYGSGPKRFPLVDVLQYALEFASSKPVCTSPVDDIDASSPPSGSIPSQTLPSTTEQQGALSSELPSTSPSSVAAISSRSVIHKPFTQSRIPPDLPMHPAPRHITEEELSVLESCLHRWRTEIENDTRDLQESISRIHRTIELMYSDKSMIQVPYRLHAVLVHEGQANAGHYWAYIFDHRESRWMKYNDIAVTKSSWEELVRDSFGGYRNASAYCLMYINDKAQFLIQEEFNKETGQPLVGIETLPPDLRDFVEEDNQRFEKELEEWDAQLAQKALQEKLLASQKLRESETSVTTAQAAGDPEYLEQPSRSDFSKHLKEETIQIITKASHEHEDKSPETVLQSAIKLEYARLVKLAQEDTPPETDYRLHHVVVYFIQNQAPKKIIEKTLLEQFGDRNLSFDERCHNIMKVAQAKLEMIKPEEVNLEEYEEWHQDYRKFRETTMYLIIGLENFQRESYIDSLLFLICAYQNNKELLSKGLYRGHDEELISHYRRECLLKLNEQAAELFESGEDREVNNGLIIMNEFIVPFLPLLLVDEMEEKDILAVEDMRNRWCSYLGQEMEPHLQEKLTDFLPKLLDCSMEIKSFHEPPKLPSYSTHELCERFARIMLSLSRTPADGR

Consider `Cc1ccc2c(N)c(C(=O)NCCc3ccc(N4CC5CCC(C4)N5)cc3Cl)sc2n1` [Compound I-21], for which the IC50 on USP28 and at USP25 was < 200 nM in each case.
As to `Cc1ccc2c(N)c(C(=O)NCCc3ccc(N4CC5CCC(C4)N5)cc3F)sc2n1` [Compound I-22], the IC50 at USP28 was < 200 nM; on USP25, 200 to 2000 nM.
With `Cc1ccc2c(N)c(C(=O)NCCc3ccc(N4CCNCC4)c(-c4ccccc4)c3)sc2n1` [Compound I-23], the IC50 was in the range of 200 to 2000 nM at USP28 and 2000 to 10000 nM at USP25.
As for `COc1cc(C)nc2sc(C(=O)NCCc3ccc(N4CCNCC4)cc3)c(N)c12` [Compound I-24], the IC50 against USP28 lay within 2000 to 10000 nM; at USP25 it was 10000 to 25000 nM.
Regarding `Cc1ccc2c(N)c(C(=O)NCCc3ccc(N4CCN(CC5CCO5)CC4)cc3)sc2n1` (stereo not shown) [Compound I-25], the IC50 was 200 to 2000 nM against USP28 and 2000 to 10000 nM against USP25.
Turning to `COCCN1CCN(c2ccc(CCNC(=O)c3sc4nc(C)ccc4c3N)cc2)CC1` [Compound I-26], the IC50 lay within 200 to 2000 nM against USP28 and 2000 to 10000 nM on USP25.
For `Nc1c(C(=O)NCCc2ccc(N3CCNCC3)cc2)sc2ncc(C(F)F)cc12` [Compound I-27], the figures for the IC50 against USP28 and at USP25 were 2000 to 10000 nM and 10000 to 25000 nM, respectively.
Regarding `Nc1c(C(=O)NCCc2ccc(N3CCNCC3)cc2)sc2ncc3c(c12)CCC3` [Compound I-28], the IC50 against USP28 and at USP25 was 2000 to 10000 nM throughout.
Turning to `Nc1c(C(=O)NCCc2ccc(N3CCNCC3)cc2)sc2nc3c(cc12)CCC3` [Compound I-29], the IC50 at USP28 and against USP25 was 2000 to 10000 nM each time.
As to `Nc1c(C(=O)NCCc2ccc(N3CCNCC3)cc2)sc2nc3c(cc12)CCCC3` [Compound I-30], the IC50 at USP28 fell in the range of 2000 to 10000 nM; at USP25, 10000 to 25000 nM.
As for `Cc1cc2c(N)c(C(=O)NCCc3ccc(N4CCNCC4)c(Cl)c3)sc2nc1C` [Compound I-31], the IC50 on USP28 and at USP25 was 2000 to 10000 nM in each case.
With `Nc1c(C(=O)NCCc2ccc(N3CCNCC3)cc2)sc2nc(C(F)(F)F)ccc12` [Compound I-33], the IC50 against USP28 and against USP25 was 2000 to 10000 nM each time.
For the molecule `Cc1ccc2c(N)c(C(=O)NCCc3cc(F)c(N4CC5CCC(C4)N5)cc3F)sc2n1` [Compound I-34], the figures for the IC50 on USP28 and at USP25 were < 200 nM and 200 to 2000 nM, respectively.
As for `Cc1ccc2c(N)c(C(=O)NCCc3ccc(N4CC5CCC(C4)N5)cc3C#N)sc2n1` [Compound I-36], the IC50 was < 200 nM against USP28 and 200 to 2000 nM at USP25.
On to `COCc1cc(N2CCNCC2)ccc1CCNC(=O)c1sc2nc(C)ccc2c1N` [Compound I-37], for which the IC50 on USP28 is < 200 nM; against USP25, 200 to 2000 nM.
Take `Cc1ccc2c(N)c(C(=O)NCCc3ccc(-n4ncc5c4CNC5)cc3)sc2n1` [Compound I-38]: the IC50 lay within 200 to 2000 nM against USP28 and 2000 to 10000 nM against USP25.
For the molecule `Nc1c(C(=O)NCCc2ccc(N3CCNCC3)c(Cl)c2)sc2ncc(Cl)cc12` [Compound I-40], the values for the IC50 on USP28 and on USP25 were 200 to 2000 nM and 2000 to 10000 nM, respectively.
Turning to `Cc1ccc2c(N)c(C(=O)NCCc3ccc(-n4ncc5c4CNC5)cc3F)sc2n1` [Compound I-41], the IC50 was < 200 nM against USP28 and 200 to 2000 nM against USP25.
For the molecule `Nc1c(C(=O)NCCc2ccc(N3CCNCC3)cc2)sc2nc(CO)ccc12` [Compound I-43], the IC50 against USP28 was 200 to 2000 nM; on USP25 it was 2000 to 10000 nM.
On to `CCc1cc(CCNC(=O)c2sc3nc(C)ccc3c2N)ccc1N1CC2CCC(C1)N2` [Compound I-44], for which the IC50 against USP28 and against USP25 was < 200 nM throughout.
Take `CCc1ccc2c(N)c(C(=O)NCCc3ccc(N4CCNCC4)cc3)sc2n1` [Compound I-47]: the IC50 on USP28 and on USP25 was < 200 nM throughout.
`CCc1ccc2c(N)c(C(=O)NCCc3cc(F)c(N4CCNCC4)cc3F)sc2n1` [Compound I-48]: the IC50 on USP28 and against USP25 was < 200 nM in each case.
On to `Cc1ccc2c(N)c(C(=O)NCCc3cc(F)c(N4C[C@@H]5C[C@H]4CN5)cc3F)sc2n1` [Compound I-52], for which the half-inhibitory concentration (IC50) is < 200 nM on USP28 and 200 to 2000 nM at USP25.

Source of the values: patent publication US10913753B2, “Thienopyridine carboxamides as ubiquitin-specific protease inhibitors” (FORMA Therapeutics, Inc., priority 2016, dated 2021).
